Source: patent US20020068759A1, “Medicament” (SmithKline Beecham plc, priority 1990, published 2002)
Structures can show the parent of a compound that is named as a salt.

SMILES | melting point [°C]
CCCSc1ncc(C[C@H](NC(=O)CCC)C(=O)O)n1Cc1ccccc1Cl [Example 1, 3-[(2-Chlorophenyl)methyl]-2-propylthio-N-butyrylhistidine] | 178 to 181
CCCCc1ncc(CC(Cc2ccccc2)C(=O)O)n1Cc1ccccc1Cl (stereo not drawn) (as salt: hydrochloride) [Example 2, 3-[2-n-Butyl-1-{(2-chlorophenyl)methyl}-1H-imidazol-5-yl]-2-benzylpropanoic Acid] | 118 to 120
CCCCc1nc2cc(Br)cc(C(=O)O)c2n1Cc1ccccc1Cl [Example 4, 5-Bromo-2-n-butyl-1-(2-chlorophenyl)methyl-1H-benzimidazole-7-carboxylic Acid] | 254 to 255
